The source of these data is patent publication US7531195B2, “Schisandrin B preparation” (priority 2005, dated 2009).

The test system of experiment [1] is Myocardial Mitochondria. The experiment is described as follows: Myocardial mitochondrial ATP generation capacity, young male and female rats. The experiment is classed as in vivo, rat. Conditions: 35 days. As to the method: Male/Female adult Sprague-Dawley rats (˜10 weeks old) were maintained under a 12-h dark/light cycle at about 22° C. and allowed food and water ad libitum. Animals were randomly divided into groups, with at least 5 animals in each. In the pretreatment groups, rats were treated intragastrically with (−) Schisandrin B at a daily dose of 1 or 10 mg/kg for 35 days. Control animals received oil only (10 ml/kg). Twenty-four hours following the last dosing, hearts were isolated from control or drug-pretreated rats and then subjected to Langendorff perfusion as described below.
(§1) Myocardial tissue samples were rinsed with ice-cold isotonic buffer (50 mM Tris, 0.32 M sucrose, 1 mM Na2EDTA, 0.2 mg/ml soybean trypsin inhibitor, 0.2 mg/ml bacitracine, 0.16 mg/ml benzamidine). Tissue homogenates were prepared by homogenizing 0.8 g of myocardial tissue in 8 ml ice-cold isotonic buffer and the homogenates were used for the preparation of mitochondrial fractions by differential centrifugation, as described in Chiu and Ko (2004). The mitochondrial pellets were resuspended in 1.5 ml of isotonic buffer containing 150 μl of 2 mg/ml soybean trypsin inhibitor and constituted the mitochondrial fractions.
(§2) Myocardial mitochondrial ATP generation capacity was measured by incubating 200 μl of nucleus-free tissue homogenate with 200 μl of substrate solution (containing 100 mM glutamate and 34 mM malate) and 20 μl ADP (2.3 mM) for 10 min at 37° C., and the ATP level were measured using an assay kit from Sigma Chemical Co. (St. Louis, Mo., USA). LDH activity was spectrophotometrically measured as described (Yim and Ko 1999).

In experiment [2] the test system is mitochondria of brain, heart, liver and skeletal muscle. The experiment is described as follows: Mitochondrial antioxidant components in tissues of young adult and middle-aged rats. The experiment is classed as in vivo, rat. The settings on record: 10 mg/kg/day x 15, range among tissues. As to the method: Young adult (8-10 week-old) and middle-aged (12-14 month-old retired breeder) female Sprague-Dawley rats were maintained under a 12-h dark/light cycle at about 22° C. and allowed food and water ad libitum. Experimental protocols were approved by the Research Practice Committee at the Hong Kong University of Science & Technology, Hong Kong. Animals were randomly divided into groups, with 5 animals in each. In the treatment groups, rats were intragastrically administered with Sch B (dissolved/suspended in olive oil) at a daily dose of 10 mg/kg for 15 days. The daily dose is approximated to 1.14 mg/kg for humans after adjusting the inter-species difference in drug distribution in the body. Untreated control animals received olive oil only. Twenty-four hours after the last dosing, animals were sacrificed by decapitation and the whole brain, heart ventricular, liver and skeletal muscle (hind limb) tissues were excised and subjected to biochemical analysis. To investigate the effect of (−) Sch B on myocardial ischemia-reperfusion […] injury, rats were intragastrically administered with (−) Sch B at a daily dose of 10 mg/kg for 35 days. Untreated control animals received olive oil only. Twenty-four hours after the last dosing, hearts were isolated from pentobarbital-anesthetized animals and subjected to I-R experiment.
Mitochondrial pellets were prepared from tissue homogenates by centrifugation at 800×g at 4° C. for 30 min, with purity being determined by measuring the relative specific activities of succinate dehydrogenase and lactate dehydrogenase (LDH) in the supernatant and mitochondrial pellet. Mitochondrial pellets were then resuspended in 1 ml of the respective homogenizing buffer used for various tissues and constituted the mitochondrial fractions. The protein concentration of mitochondrial fractions was determined using a Bio-Rad protein assay kit.
Aliquots (200 μl) of mitochondrial fractions were used for measuring mitochondrial glutathione (GSH) and α-tocopherol (α-TOC) levels by an enzymatic method and HPLC method, respectively, using GSH and α-TOC as standards. Se-glutathione peroxidase (GPX) activity was measured. Mn-superoxide dismutase (SOD) activity was measured by monitoring the […] of cytochrome c caused by superoxide radicals generated from the xanthine oxidase-xanthine reaction.

Experiment [3] concerns Myocardial Mitochondria. In words: Myocardial mitochondrial ATP generation capacity, old male and female rats. The experiment is classed as in vivo, rat. The settings on record: liposome-encapsulated in drinking water, 10 mg/kg daily, 35 days. As to the method:
(§3) Aged male and female rats (˜12 months old) were administered with liposome-encapsulated (−) Schisandrin B in drinking water for 35 days, with the daily dose estimated to be 10 mg/kg.
(§4) Male/Female adult Sprague-Dawley rats (˜12 months old) were maintained under a 12-h dark/light cycle at about 22° C. and allowed food and water ad libitum. Animals were randomly divided into groups, with at least 5 animals in each. In the pretreatment groups, rats were treated with liposome-encapsulated (−) Schisandrin B in drinking water for 35 days, with the estimated daily dose of 10 mg/kg. Control animals received empty liposomes-containing drinking water. Twenty-four hours following the last dosing, hearts were isolated from control or drug-pretreated rats and then subjected to Langendorff perfusion as described below.
as §1, §2

The subject of experiment [4] is Isolated-Perfused Rat Heart. In words: Myocardial ischemia-reperfusion injury (LDH leakage), isolated-perfused heart of old rats. The experiment is classed as in vivo. The settings on record: liposome-encapsulated, 10 mg/kg daily, 35 days. As to the method:
as §3, §4
The heart was excised quickly and immediately immersed in ice-cold and heparinized (50 unit/ml) saline. The aorta was cannulated and then transferred to a warm and moistured chamber of the perfusion apparatus. The heart was retrogradely perfused according to Langendorff method as described (Yim and Ko 1999).
After an initial 30-min of perfusion for equilibration, the isolated heart was subjected to a 40-min period of ‘no-flow’ global ischemia followed by 20 min of reperfusion. Coronary effluent was collected in 1-min fractions at increasing time intervals during the course of equilibration and reperfusion. The fractions were immediately put on ice until assay for lactate dehydrogenase (LDH) activity. The extent of LDH leakage during the reperfusion period, an indirect index of myocardial injury, was estimated by computing the area under the curve of the graph plotting the percent LDH activity (with respect to the mean pre-ischemic value measured during the equilibration period) against the reperfusion time (1-20 min), as described (Yim and Ko 1999). Immediately after the I-R procedure, heart ventricular tissue samples were obtained for biochemical analysis.

Setting [5] is: female rats, 1 mg/kg daily oral.
The mark [6] stands for this setting: female rats, 10 mg/kg daily oral.

Marks after values point to notes of the source that are not given here.

For the molecule `COc1cc2c(c(OC)c1OC)-c1c(cc3c(c1OC)OCO3)CC(C)C(C)C2` (single isomer, unassigned; (-)) [(−) Sch B, (−) Schisandrin B], the “ATP Generation, percent increase vs untreated control” value in the experiment with Myocardial Mitochondria [1] (setting [5]) is recorded as “(26%)”; with Myocardial Mitochondria [1] (setting [6]), “(78%)”; with Myocardial Mitochondria [1] (male rats, 1 mg/kg daily oral), “(99%)”; in the experiment on Myocardial Mitochondria [1] (male rats, 10 mg/kg daily oral), “(141%)”; with Myocardial Mitochondria [3] (old female rats), “(48%)”; with Myocardial Mitochondria [3] (old male rats), “(11%)”. Moreover, the “ATP generation” value in the experiment on Myocardial Mitochondria [1] (setting [5]) is given as 4.11 ± 0.19^b μmol/min/mg protein; in the experiment on Myocardial Mitochondria [1] (setting [6]), 5.79 ± 0.37^b μmol/min/mg protein; in the experiment with Myocardial Mitochondria [1] (male rats, 10 mg/kg daily oral), 6.74 ± 0.37^a μmol/min/mg protein; in the experiment on Myocardial Mitochondria [3] (old female rats (~12 months)) it was 4.43 ± 0.10^b μmol/min/mg protein; in the experiment with Myocardial Mitochondria [3] (old male rats (~12 months)), 3.75 ± 0.06 μmol/min/mg protein. Moreover, in experiment [2], the “extent of stimulation of mitochondrial GPX activity” value was 21-41%. Also, the “extent of stimulation of mitochondrial GSH level” value in experiment [2] is given as 21-29%. For the same molecule, in experiment [2], the “extent of stimulation of mitochondrial SOD activity” value is recorded as 19-34%. The “extent of stimulation of mitochondrial α-TOC level” value in experiment [2] is listed as 19-34%. For the same molecule, the “LDH Leakage” value in experiment [4] (I-R, old female) is reported as 4534 ± 86.5^b AU; in experiment [4] (I-R, old male), 2426 ± 219^a AU; in experiment [4] (NON-I-R, old female), 611 ± 49.7 AU; in experiment [4] (NON-I-R, old male), 570 ± 66.8 AU. The “LDH Leakage, percent protection vs unpretreated control” value in experiment [4] (I-R, old female) is recorded as “(56%)”; in experiment [4] (I-R, old male), “(62%)”.
